Test [1] concerns cellular H3K36me2 level in multiple myeloma cell line KMS11 (t(4;14)+). Nature of the test: H3K36me2 cellular ELISA assay in KMS11-Par line. Particulars: Homo sapiens, KMS-11, ELISA, read-out: H3K36me2 ELISA in KMS11-Par. It is filed as cell-based. The procedure, abridged:
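After 72 h compound exposure, HCl-extracted histones from KMS11 (t(4;14)+) cells were probed by ELISA for H3K36me2 against total H3 with a chemiluminescence read-out. Cells were plated at 1,250/well in Opti-MEM plus B-27 and N2 the day before. A parallel CellTiter-Glo plate tracked viability.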
On the technique in general: In an ELISA, binding on a coated surface is turned into a signal by an enzyme label.

A further test has as its target NSD2 [1-1365] (Homo sapiens (Human), UniProt O96028). The test can be described thus: LC-MS/MS-based NSD2 enzymatic assay (SAH production). The note with it: read-out: NSD2 IC50. Format: biochemical. The procedure, abridged: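 SAH formed was measured by LC-MS/MS using d4-SAH as internal standard and an SAH calibration curve. Compounds were preincubated 20 min with NSD2 [1-1365] and SAM; mouse-liver nucleosome then started a 90 min room-temperature reaction (8 nM enzyme, 1 μM SAM, 400 nM nucleosome final, pH 8.0), stopped with TFA.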

For test [2], the system named is cellular H3K36me2 level in thyroid carcinoma cell line CGTH-W-1 (NSD2 E1099K). Nature of the test: H3K36me2 cellular ELISA assay in CGTH-W-1 line. Format: cell-based. Particulars: Homo sapiens, CGTH-W-1, 72 h, read-out: H3K36me2 ELISA in CGTH-W-1. The procedure, abridged:
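After 72 h compound treatment of NSD2 E1099K-mutant CGTH-W-1 cells, H3K36me2 and total H3 were quantified by ELISA with chemiluminescent read-out. A parallel-seeded plate gave cell viability by CellTiter-Glo.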

Setting [3] is: KMS11-Par line (t(4;14)+), 72 hours treatment.
Setting [4] is: NSD2 biochemical activity, class symbols.

In patent US11420970B1 (NOVARTIS AG, priority 2019, dated 2022) one finds IC50 data, which are given here for 20 molecules.

Read-outs that look alike come from different tables or passages of the source.

Chain of NSD2 [1-1365] (O96028 whole entry): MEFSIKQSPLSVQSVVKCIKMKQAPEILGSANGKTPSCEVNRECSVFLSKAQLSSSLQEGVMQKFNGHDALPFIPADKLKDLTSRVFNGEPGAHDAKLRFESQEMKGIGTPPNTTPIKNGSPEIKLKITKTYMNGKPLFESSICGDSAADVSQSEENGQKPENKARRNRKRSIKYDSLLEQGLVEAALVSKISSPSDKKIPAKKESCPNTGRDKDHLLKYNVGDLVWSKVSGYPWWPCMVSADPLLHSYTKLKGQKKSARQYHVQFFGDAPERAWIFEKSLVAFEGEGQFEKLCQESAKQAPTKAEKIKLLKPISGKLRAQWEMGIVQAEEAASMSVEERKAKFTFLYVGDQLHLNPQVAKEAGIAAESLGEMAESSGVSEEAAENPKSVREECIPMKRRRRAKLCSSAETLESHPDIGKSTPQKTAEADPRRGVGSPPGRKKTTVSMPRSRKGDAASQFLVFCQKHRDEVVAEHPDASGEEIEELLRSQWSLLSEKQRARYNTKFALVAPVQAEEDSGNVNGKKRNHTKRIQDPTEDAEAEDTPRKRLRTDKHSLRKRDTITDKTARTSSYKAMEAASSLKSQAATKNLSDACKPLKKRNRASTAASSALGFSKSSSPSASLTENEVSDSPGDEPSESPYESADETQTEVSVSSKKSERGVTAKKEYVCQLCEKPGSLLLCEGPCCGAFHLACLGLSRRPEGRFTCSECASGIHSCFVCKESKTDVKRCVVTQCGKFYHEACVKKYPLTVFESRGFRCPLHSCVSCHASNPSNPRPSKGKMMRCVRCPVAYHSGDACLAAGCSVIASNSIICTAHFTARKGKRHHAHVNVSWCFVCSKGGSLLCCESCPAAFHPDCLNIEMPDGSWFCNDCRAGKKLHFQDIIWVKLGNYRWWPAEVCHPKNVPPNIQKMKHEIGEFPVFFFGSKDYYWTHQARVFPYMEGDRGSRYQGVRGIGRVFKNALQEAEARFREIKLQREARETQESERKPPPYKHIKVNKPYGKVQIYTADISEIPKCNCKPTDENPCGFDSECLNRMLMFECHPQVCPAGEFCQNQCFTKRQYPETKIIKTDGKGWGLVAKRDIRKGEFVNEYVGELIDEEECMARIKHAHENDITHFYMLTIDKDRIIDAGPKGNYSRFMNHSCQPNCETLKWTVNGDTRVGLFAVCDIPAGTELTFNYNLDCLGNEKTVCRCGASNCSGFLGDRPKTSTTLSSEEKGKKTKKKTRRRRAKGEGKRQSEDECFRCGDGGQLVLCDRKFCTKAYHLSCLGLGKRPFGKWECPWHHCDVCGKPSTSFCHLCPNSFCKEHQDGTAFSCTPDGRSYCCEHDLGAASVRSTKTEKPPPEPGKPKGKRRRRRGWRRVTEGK

For `COc1cc(F)c(-c2cc(Cn3cnc4c(N)ncnc43)c(N3CCC[C@](N)([C@H](O)C(F)F)C3)cn2)cc1F` [Example 161, (S)-1-((R)-3-amino-1-(4-((6-amino-9H-purin-9-yl)methyl)-6-(2,5-difluoro-4-methoxyphenyl)pyridin-3-yl)piperidin-3-yl)-2,2-difluoroethan-1-ol], the figures for the IC50 (in test [1] (setting [3]); on NSD2 [1-1365] (setting [4]); in test [2]) were 502 nM, 1 to 10 nM and 73 nM, respectively.
On to `COc1ccc(-c2cc(Cn3cnc4c(N)ncnc43)c(N3CCC[C@](N)([C@@H](O)C(F)F)C3)cn2)c(C(F)F)c1` [Example 162, (R)-1-((R)-3-amino-1-(4-((6-amino-9H-purin-9-yl)methyl)-6-(2-(difluoromethyl)-4-methoxyphenyl)pyridin-3-yl)piperidin-3-yl)-2,2-difluoroethan-1-ol], for which the IC50 in test [1] (setting [3]) was 440 nM; on NSD2 [1-1365] (setting [4]), 1 to 10 nM; in test [2], 86 nM.
Take `COc1ccc(-c2cc(Cn3cnc4c(N)ncnc43)c(N3CCC[C@](N)([C@H](O)C(F)F)C3)cn2)c(C(F)F)c1` [Example 163, (S)-1-((R)-3-amino-1-(4-((6-amino-9H-purin-9-yl)methyl)-6-(2-(difluoromethyl)-4-methoxyphenyl)pyridin-3-yl)piperidin-3-yl)-2,2-difluoroethan-1-ol]: the IC50 is 1850 nM in test [1] (setting [3]), 1 to 10 nM on NSD2 [1-1365] (setting [4]) and 204 nM in test [2].
As for `COc1ccc(-c2cc(Cn3cnc4c(N)ncnc43)c(N3CCC[C@](N)([C@H](O)C(F)F)C3)cn2)c(Cl)c1` [Example 168, (S)-1-((R)-3-amino-1-(4-((6-amino-9H-purin-9-yl)methyl)-6-(2-chloro-4-methoxyphenyl)pyridin-3-yl)piperidin-3-yl)-2,2-difluoroethan-1-ol], the IC50 in test [1] (KMS11-Par line, 72 hours) was 4780 nM; on NSD2 [1-1365], 10 to 1000 nM; in test [2], 997 nM.
For `COc1ccc(-c2cc(Cn3cnc4c(N)ncnc43)c(N3CCC[C@](N)([C@@H](O)C(F)F)C3)cn2)c(Cl)c1` [Example 169, (R)-1-((R)-3-amino-1-(4-((6-amino-9H-purin-9-yl)methyl)-6-(2-chloro-4-methoxyphenyl)pyridin-3-yl)piperidin-3-yl)-2,2-difluoroethan-1-ol], the IC50 is 2990 nM in test [1] (KMS11-Par line, 72 hours); 10 to 1000 nM at NSD2 [1-1365]; 426 nM in test [2].
For `Nc1ncnc2c1ncn2Cc1cc(-c2cc(F)c(F)cc2C(F)F)ncc1N1CCC[C@](N)([C@@H](O)C(F)F)C1` [Example 170, (R)-1-((R)-3-amino-1-(4-((6-amino-9H-purin-9-yl)methyl)-6-(2-(difluoromethyl)-4,5-difluorophenyl)pyridin-3-yl)piperidin-3-yl)-2,2-difluoroethan-1-ol], the IC50 was 1470 nM in test [1] (KMS11-Par line, 72 hours); 10 to 1000 nM on NSD2 [1-1365]; 161 nM in test [2].
Turning to `Nc1ncnc2c1ncn2Cc1cc(-c2cc(F)c(F)cc2C(F)F)ncc1N1CCC[C@](N)([C@H](O)C(F)F)C1` [Example 171, (S)-1-((R)-3-amino-1-(4-((6-amino-9H-purin-9-yl)methyl)-6-(2-(difluoromethyl)-4,5-difluorophenyl)pyridin-3-yl)piperidin-3-yl)-2,2-difluoroethan-1-ol], the IC50 in test [1] (KMS11-Par line, 72 hours) is 5520 nM; at NSD2 [1-1365], 10 to 1000 nM; in test [2], 886 nM.
Regarding `Nc1ncnc2c1ncn2Cc1cc(-c2ccc(F)c(F)c2F)ncc1N1CCC[C@](N)([C@@H](O)C(F)F)C1` [Example 172, (R)-1-((R)-3-amino-1-(4-((6-amino-9H-purin-9-yl)methyl)-6-(2,3,4-trifluorophenyl)pyridin-3-yl)piperidin-3-yl)-2,2-difluoroethan-1-ol], the IC50 in test [1] (KMS11-Par line, 72 hours) was 8930 nM; on NSD2 [1-1365] it was 10 to 1000 nM; in test [2], 1200 nM.
Consider `COc1cc(F)ccc1-c1cc(Cn2cnc3c(N)ncnc32)c(N2CCC[C@](N)([C@H](O)C(F)F)C2)cn1` [Example 173, (S)-1-((R)-3-amino-1-(4-((6-amino-9H-purin-9-yl)methyl)-6-(4-fluoro-2-methoxyphenyl)pyridin-3-yl)piperidin-3-yl)-2,2-difluoroethan-1-ol], for which the IC50 in test [1] (KMS11-Par line, 72 hours) was 12800 nM; at NSD2 [1-1365], 10 to 1000 nM; in test [2] it was 1040 nM.
In the same order, the values of `COc1cc(F)ccc1-c1cc(Cn2cnc3c(N)ncnc32)c(N2CCC[C@](N)([C@@H](O)C(F)F)C2)cn1` [Example 174, (R)-1-((R)-3-amino-1-(4-((6-amino-9H-purin-9-yl)methyl)-6-(4-fluoro-2-methoxyphenyl)pyridin-3-yl)piperidin-3-yl)-2,2-difluoroethan-1-ol] are 10600 nM, 10 to 1000 nM and 1160 nM.
`Nc1ncnc2c1ncn2Cc1cc(-c2ccc(F)c(Cl)n2)ncc1N1CCC[C@](N)([C@H](O)C(F)F)C1` [Example 175, (S)-1-((R)-3-amino-1-(4-((6-amino-9H-purin-9-yl)methyl)-6′-chloro-g-fluoro-[2,2′-bipyridin]-5-yl)piperidin-3-yl)-2,2-difluoroethan-1-ol]: the IC50 in test [1] (KMS11-Par line, 72 hours) is 11300 nM; on NSD2 [1-1365] it was 10 to 1000 nM; in test [2], 534 nM.
In the same order, the values of `Nc1ncnc2c1ncn2Cc1cc(-c2ccc(F)c(Cl)n2)ncc1N1CCC[C@](N)([C@@H](O)C(F)F)C1` [Example 176, (R)-1-((R)-3-amino-1-(4-((6-amino-9H-purin-9-yl)methyl)-6′-chloro-5′-fluoro-[2,2′-bipyridin]-5-yl)piperidin-3-yl)-2,2-difluoroethan-1-ol] are 8970 nM, 10 to 1000 nM and 953 nM.
As to `Nc1ncnc2c1ncn2Cc1cc(-c2cnc(F)c(Cl)c2)ncc1N1CCC[C@](N)(c2cccc(Cl)n2)C1` [Example 180, (R)-9-((5-(3-amino-3-(6-chloropyridin-2-yl)piperidin-1-yl)-5′-chloro-6′-fluoro-[2,3′-bipyridin]-4-yl)methyl)-9H-purin-6-amine], the IC50 is 5490 nM in test [1] (KMS11-Par line, 72 hours); 10 to 1000 nM at NSD2 [1-1365]; 1460 nM in test [2].
Turning to `COc1ccc(-c2cc(Cn3cnc4c(N)ncnc43)c(N3CCC[C@](N)(c4cccc(Cl)n4)C3)cn2)c(F)c1` [Example 181, (R)-9-((5-(3-amino-3-(6-chloropyridin-2-yl)piperidin-1-yl)-2-(2-fluoro-4-methoxyphenyl)pyridin-4-yl)methyl)-9H-purin-6-amine], the IC50 in test [1] (KMS11-Par line, 72 hours) is 1980 nM; at NSD2 [1-1365] it was 10 to 1000 nM; in test [2], 1560 nM.
As to `Nc1ncnc2c1ncn2Cc1cc(-c2ccc(F)cc2)ncc1N1CCC[C@](N)(c2cccc(C3CC3)n2)C1` [Example 182, (R)-9-((5-(3-amino-3-(6-cyclopropylpyridin-2-yl)piperidin-1-yl)-2-(4-fluorophenyl)pyridin-4-yl)methyl)-9H-purin-6-amine], the IC50 is 142 nM in test [1] (KMS11-Par line, 72 hours); 1 to 10 nM on NSD2 [1-1365]; 97.5 nM in test [2].
With `C[C@H](F)c1cccc([C@@]2(N)CCCN(c3cnc(-c4ccc(F)cc4)cc3Cn3cnc4c(N)ncnc43)C2)n1` [Example 183, 9-((5-((R)-3-amino-3-(6-((S)-1-fluoroethyl)pyridin-2-yl)piperidin-1-yl)-2-(4-fluorophenyl)pyridin-4-yl)methyl)-9H-purin-6-amine], the IC50 in test [1] (KMS11-Par line, 72 hours) was 455 nM; on NSD2 [1-1365], 10 to 1000 nM; in test [2] it was 159 nM.
`COc1cc(F)c(-c2cc(Cn3cnc4c(N)ncnc43)c(N3CCC[C@](N)(c4cccc(Cl)n4)C3)cn2)cc1F` [Example 187, (R)-9-((5-(3-amino-3-(6-chloropyridin-2-yl)piperidin-1-yl)-2-(2,5-difluoro-4-methoxyphenyl)pyridin-4-yl)methyl)-9H-purin-6-amine]: the IC50 in test [1] (KMS11-Par line, 72 hours) is 815 nM; on NSD2 [1-1365], 10 to 1000 nM; in test [2], 383 nM.
As to `COc1ccc(-c2cc(Cn3cnc4c(N)ncnc43)c(N3CCC[C@](N)(c4ccc(F)c(Cl)n4)C3)cn2)cc1F` [Example 188, (R)-9-((5-(3-amino-3-(6-chloro-5-fluoropyridin-2-yl)piperidin-1-yl)-2-(3-fluoro-4-methoxyphenyl)pyridin-4-yl)methyl)-9H-purin-6-amine], the IC50 is 1910 nM in test [1] (KMS11-Par line, 72 hours); 1 to 10 nM on NSD2 [1-1365]; 1010 nM in test [2].
The like results for `Cc1nc([C@@]2(N)CCCN(c3cnc(-c4ccc(F)cc4)cc3Cn3cnc4c(N)ncnc43)C2)ccc1F` [Example 190, (R)-9-((5-(3-amino-3-(5-fluoro-6-methylpyridin-2-yl)piperidin-1-yl)-2-(4-fluorophenyl)pyridin-4-yl)methyl)-9H-purin-6-amine] were, in that order, 687 nM, 1 to 10 nM and 258 nM.
Take `Nc1ncnc2c1ncn2Cc1cc(-c2ccc(F)c(Cl)n2)ncc1N1CCC[C@](N)(c2cccc(Cl)n2)C1` [Example 191, (R)-9-((5-(3-amino-3-(6-chloropyridin-2-yl)piperidin-1-yl)-6′-chloro-5′-fluoro-[2,2′-bipyridin]-4-yl)methyl)-9H-purin-6-amine]: the IC50 is 4560 nM in test [1] (KMS11-Par line, 72 hours); 10 to 1000 nM at NSD2 [1-1365]; 1380 nM in test [2].
